Laboratory results reported in US8993007B2, “Preparation used for anti-tachyarrhythmia and its preparation method” (Heshengyuan of Chinese Medicine Research & Development …, priority 2012, dated 2015).
Where “and” joins values, the source holds several entries; their conditions need not be identical. Equal entries are not always repeated.

Key:
CD mice = test: CaCl2-induced arrhythmia, efficacy screening test; format: in vivo; conditions: CaCl2 tail vein 45 min after duodenal administration, amiodarone 78 mg/kg, NO.1 18.2, NO.2 157.6, NO.3 9.1, NO.4 462, NO.5 139, NO.6 1.16 mg/kg, NO.7 1.3 g/kg; for Duration (of arrhythmia), single animals: animals 1-10; for Duration (of arrhythmia), Mean: mean of 10 animals
Experimental: 90 CD mice, male, weighing 28-30 g, Beijing Vital River Laboratory Animal Technology Co., license number Sea (Beijing) 2006-0009. […] Before administration each drug was prepared to the desired concentration with physiological saline, duodenal route of administration, the dose of 10 mL/kg. […] Observed ECG whether induced arrhythmia, recorded the duration of ventricular arrhythmia; and the results were statistically analyzed.

Na^+—K^+-ATPase = test: Na+-K+-ATPase concentration in cardiac tissue homogenate of MI rats (assay kit); format: in vivo; conditions: Metoprolol, Shengsong Yangxin capsule (doses per b188: 2.25 mg/kg, 0.432 g/kg), intragastric 7 days
Experimental: (§1) The rats were fixed on their back on board and chloral hydrate (10 mg/kg) intraperitoneally administered. Between the rib 4 and 5 on the left side, an open was cut into pleural cavity and the pericardium was torn open, then the heart was extruded by light pressure to the thorax. Two mm beneath the left auricle, a ligation was done on left anterior descending artery with surgical suture (USP 0) and the heart was put back to the thorax. The cut open was closed and stitched. Penicillin (up to 80,000 unit) was used for the incision to protect again infection.
(§2) Forty-two rats models were randomly assigned to 6 groups, 7 for each. They were the model group, the Metoprolol group, the Shengsong Yangxin capsule group, the large-dose extract group, the moderate-dose extract group, the small-dose extract group. Added were a control group of 6 rats and sham operation group of 6 rats. Totally there were 8 groups.
(§3) 1.2.3 Medicines Doses and Preparation. See Section 1.2.3 in the Experiment Example 1.
(§4) Starting from the next day after model establishment, the medicines were all administered intragastrically to the relevant groups accordingly, while the model group and sham operation group were given normal saline. The treatment course lasted for 7 days. […]

Wistar male rats = test: MI areas after ligation of left anterior descending artery; format: in vivo; conditions: Metoprolol 2.25 mg/kg, Shengsong Yangxin capsule 0.432 g/kg; intragastric 7 days
Experimental: The rats were fixed on their back on board and chloral hydrate (10 mg/kg) intraperitoneally administered. Between the rib 4 and 5 on the left side, an open was cut into pleural cavity and the pericardium was torn open, then the heart was extruded by light pressure to the thorax. Two mm beneath left auricle, a ligation was done on left anterior descending artery with surgical suture (USP 0) and the heart was put back to the thorax. The cut open was closed and stitched. Penicillin (up to 80,000 unit) was used for the incision to protect again infection.
Sixty-six rats models were randomly assigned to 6 groups, 11 for each. They were the model group, the Metoprolol group, the Shengsong Yangxin capsule group, the large-dose extract group, the moderate-dose extract group and the small-dose extract group.
1) The Metoprolol group. Due to the administration of β receptor inhibitor after myocardial infarction (MI), Metoprolol was administered initially at small dose of 12.5 mg, bid, that is, the dosage was 25×0.018×5=2.25 mg/kg. Metoprolol 67.5 mg was accurately weighed and evenly dissolved with 300 ml normal saline (0.9%). […]
The hearts of the rats were harvested 2 hours after the last treatments were administered and the residues of blood in the heart chambers were washed with normal saline. […] Armed with the MPIDS-500, two technicians measured the MI areas on both sides of the slices. […]

connexin 43 [1] = test: Western Blot test of connexin 43 in MI areas; format: in vivo, rats; conditions: Metoprolol, Shengsong Yangxin capsule, intragastric 7 days
Experimental: The rats were fixed the on their back on board and chloral hydrate (3.5%, […]) intraperitoneally administered. Between the rib 4 and 5 on the left side, an open was cut into pleural cavity and the pericardium was torn open, then the heart was extruded by light pressure to the thorax. Two mm beneath left auricle, a ligation was done on left anterior descending artery with surgical suture (USP 0) and the heart was put back to the thorax. The cut open was closed and stitched. Penicillin (up to 80,000 unit) was used for the incision to protect again infection.
Eighty-four rats' models were randomly assigned to 6 groups, 14 for each. They were the model group, the Metoprolol group, the Shengsong Yangxin capsule group, the large-dose extract group, the moderate-dose extract group, the small-dose extract group. Two more groups added were the control group of 13 rats and sham operation group of 13 rats. Some rats were dead the next day before intragastrical administration: 1 in the sham operation group, model group, Metoprolol group, Shengsong Yangxin capsule group, large-dose extract group and moderate-dose extract group respectively and 2 in the small-dose extract group.
1.2.3 Medicines Doses and Preparation. See Section 1.2.3 in the Experiment Example 1. […]

Ca^2+-ATPase = test: Ca2+-ATPase concentration in cardiac tissue homogenate of MI rats (assay kit); format: in vivo; conditions: Metoprolol, Shengsong Yangxin capsule (doses per b188: 2.25 mg/kg, 0.432 g/kg), intragastric 7 days
Experimental: as §1, §2, §3, §4

connexin 43 [2] = test: Immunohistochemical expression of connexin 43 in left ventricle; format: in vivo, rats; conditions: immunohistochemistry; Metoprolol, Shengsong Yangxin capsule; intragastric 7 days
Experimental: (§5) Two primary antibodies were used in immunohistochemical test. The connexin 43 rabbit ploy-colonal antibody was supplied by CST, USA, Batch No. 08/2011 and phospho-connexin 43 (ser 368) rabbit ploy-colonal antibody was supplied by Santa Cruz, USA, Batch no. G2011. SP 2-step reagent kit for secondary antibody was supplied by Beijing Zhongshan Goldenspace Biotechnology Co. Ltd., Batch no. K116812C. Anhydrous ethyl alcohol was supplied by Beijing Chemical Works, 2500 ml/bottle, Batch no. 20110808.95% ethanol was supplied by Beijing Chemical Works, 2500 ml/bottle, Batch no. 20110808. Formalin solution was supplied by Xilong Chemical Corporation, 500 ml/bottle, Batch no. 1110082. Xylene solution was supplied by Beijing Chemical Works, 500 ml/bottle, Batch no. 20110808. Paraffin section (54-56° C.) was supplied by Beijing Beihuakangtai Reagents Co. Ltd., Batch no. 20110428. DAB reagent kit was supplied by Beijing ComWin Biotech Co. Ltd., Batch no. 03911H. Polylysine, strength 25 mg, was supplied by Shanghai Sigma-aldrich Trading Co. Ltd., Batch no. P1399. Microscopic cover glass (24×24 mm) and slide glass (model 7105) were supplied by Beijing Chuanganghuaxin Experimental Instrument Co. Ltd. Stainless steel pressure port, microwave oven, thermostatic waterbath, immunohistochemistry kit, antigen retrieval kit, and microscope. […]

[3] = tested on: phospho-connexin 43 (ser 368); test: Immunohistochemical expression of phospho-connexin 43 in left ventricle; format: in vivo, rats; conditions: immunohistochemistry; Metoprolol, Shengsong Yangxin capsule; intragastric 7 days
Experimental: as §5

SMILES | Duration (of arrhythmia), single animals (CD mice) | Duration (of arrhythmia), Mean (CD mice) [s] | Concentrations of Na^+-k^+-ATPase (Na^+—K^+-ATPase) | MI area/total area of ventricular chamber (%) (Wistar male rats) | Gray degree of Connexin 43 (connexin 43 [1]) | The concentrations of Ca^2+-ATPase (Ca^2+-ATPase) | IOD of connexin 43 (connexin 43 [2]) | expression Area of connexin 43 (connexin 43 [2]) | IOD values of phospho-connexin 43 [3] | expression Area of phospho-connexin 43 [3]
CCCCc1oc2ccccc2c1C(=O)c1cc(I)c(OCCN(CC)CC)c(I)c1 [amiodarone] | 60 s and 106 s and 76 s and 53 s and 104 s and 99 s and 0 s and 86 s and 88 s and 120 s | 79.2 |  |  |  |  |  |  |  | 
COCCc1ccc(OCC(O)CNC(C)C)cc1 (stereo not drawn) [Metoprolol] |  |  | 10.1177 ± 0.167**ΔΔ U/ml | 19.0847 ± 2.819 | 0.5443 ± 0.1523**ΔΔ | 17.5339 ± 0.2439**ΔΔ U/ml | 4535.0243 ± 1743**ΔΔ | 17723.1800 ± 6672**ΔΔ | 2686.5321 ± 1725**ΔΔ | 13283.8000 ± 8070**ΔΔ
COc1cc2c(cc1OC)[C@@H]1Cc3ccc(OC)c(OC)c3CN1CC2 [Sample6, Tetrahydropalmatine] | 70 s (2×) and 79 s (2×) and 100 s and 47 s and 181 s and 104 s and 130 s and 80 s | 94.0 |  |  |  |  |  |  |  | 
